# Marks after values point to notes of the source that are not given here.
# Key:
# adiponectin [1] = assay: Adiponectin secretion in LPS/3T3-L1 adipocytes; type: cell-based, murine; conditions: for induction of adiponectin secretion: any of the doses tested; for Concentration of maximum stimulation of adiponectin secretion: LPS-treated D5 3T3-L1 adipocytes
# IL-6 [2] = assay: IL-6 secretion from TNFα-treated 3T3-L1 adipocytes; type: cell-based, murine; conditions: 10 ng TNFα/ml
# db/db mice = type: in vivo, mouse; conditions: three consecutive days
# IL-6 [3] = assay: IL-6 secretion in LPS/3T3-L1 adipocytes; type: cell-based, murine; conditions: at the dose providing maximum inhibition; for IL-6 Index: indexed to LPS control
# adiponectin [4] = assay: Adiponectin secretion from insulin-resistant 3T3-L1 adipocytes; type: cell-based, murine
# DBA/J mice = assay: Collagen induced rheumatoid arthritis murine model; type: in vivo, mouse
# adiponectin [5] = assay: Adiponectin secretion from TNFα-treated 3T3-L1 adipocytes; type: cell-based, murine
# Experimental: For two days, the cells were allowed grow to reach confluence. […] Adiponectin Assay—The adiponectin secreted into the medium was quantified using the Mouse Adiponectin Quantikine® Immunoassay kit with no modifications (R&D Systems, Minneapolis, Minn.). […] Statistical Calculations and Interpretation—All assays were preformed in duplicate. […] Differences among the doses and test agents were determined using the Student's t-test without correction for multiple comparisons; the nominal five percent probability of a type I error was selected.
# IL-6 [6] = assay: IL-6 secretion from insulin-resistant 3T3-L1 adipocytes; type: cell-based, murine; conditions: high insulin
# PKBγ = PKBγ (Homo sapiens, UniProt Q9Y243); assay: KinaseProfiler Assay; type: biochemical; conditions: 5 ug/ml, read-out: effect (as % of Control)
# PKCβII = PKCβII (Homo sapiens, UniProt P05771); assay: KinaseProfiler Assay; type: biochemical; conditions: 5 ug/ml, read-out: effect (as % of Control)
# [7] = at the concentration of maximum stimulation
# Sequence of PKBγ (Q9Y243 whole entry): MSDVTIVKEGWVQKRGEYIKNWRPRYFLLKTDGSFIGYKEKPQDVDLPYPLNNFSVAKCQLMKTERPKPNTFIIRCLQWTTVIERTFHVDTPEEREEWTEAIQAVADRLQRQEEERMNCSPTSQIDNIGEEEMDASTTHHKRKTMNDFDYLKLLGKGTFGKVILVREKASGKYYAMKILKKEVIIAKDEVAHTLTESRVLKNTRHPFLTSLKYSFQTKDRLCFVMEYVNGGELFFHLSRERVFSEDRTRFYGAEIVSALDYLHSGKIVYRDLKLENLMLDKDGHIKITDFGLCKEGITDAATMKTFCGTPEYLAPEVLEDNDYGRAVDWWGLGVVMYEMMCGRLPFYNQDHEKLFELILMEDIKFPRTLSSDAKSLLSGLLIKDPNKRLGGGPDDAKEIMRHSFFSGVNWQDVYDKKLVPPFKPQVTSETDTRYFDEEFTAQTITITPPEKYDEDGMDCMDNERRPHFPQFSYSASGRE
# Sequence of PKCβII (P05771 1-673 isoform P05771-2): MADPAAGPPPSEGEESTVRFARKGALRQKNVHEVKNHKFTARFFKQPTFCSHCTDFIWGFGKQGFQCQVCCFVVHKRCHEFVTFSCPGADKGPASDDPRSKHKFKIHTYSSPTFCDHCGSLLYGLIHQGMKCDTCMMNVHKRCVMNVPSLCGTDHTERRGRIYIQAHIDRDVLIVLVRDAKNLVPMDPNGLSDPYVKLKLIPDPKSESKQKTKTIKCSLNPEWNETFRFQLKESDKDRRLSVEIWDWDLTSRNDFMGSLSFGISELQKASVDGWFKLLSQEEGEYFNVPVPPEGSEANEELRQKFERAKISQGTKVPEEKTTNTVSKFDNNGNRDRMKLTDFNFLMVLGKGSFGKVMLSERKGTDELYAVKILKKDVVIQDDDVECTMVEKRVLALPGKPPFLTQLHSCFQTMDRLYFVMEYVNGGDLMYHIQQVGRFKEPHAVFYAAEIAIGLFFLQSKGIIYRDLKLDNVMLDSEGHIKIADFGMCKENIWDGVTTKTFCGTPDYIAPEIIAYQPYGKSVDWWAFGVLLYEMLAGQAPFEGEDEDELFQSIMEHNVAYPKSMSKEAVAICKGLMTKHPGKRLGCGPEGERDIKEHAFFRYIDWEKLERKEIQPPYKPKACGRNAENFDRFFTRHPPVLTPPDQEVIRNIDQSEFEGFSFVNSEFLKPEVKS
structure (smiles),measurement,setting,value
"COc1ccc2c(c1)c(CC(=O)O)c(C)n2C(=O)c1ccc(Cl)cc1 [Indomethacin, indomethacin]",% Stimulation of adiponectin secretion (maximum),adiponectin [1]; [7],9%
same,IL-6 secretion in the presence of TNFα,IL-6 [2],no anti-inflammatory effect
CN(C)C(=N)N=C(N)N [metformin],serum glucose relative to the controls,db/db mice,decreased
CC(C)Cc1ccc(C(C)C(=O)O)cc1 (centres unmarked) [ibuprofen],% Stimulation of adiponectin secretion (maximum),adiponectin [1]; [7],22%
O=C(O)c1ccccc1O [salicylic acid],induction of adiponectin secretion,adiponectin [1],failed to induce adiponectin secretion
same,Adiponectin Index,"adiponectin [1]; at the concentration of maximum stimulation, indexed to LPS control",0.96
same,% Inhibition of IL-6 secretion (maximum),IL-6 [3],48* %
same,IL-6 Index,IL-6 [3],0.52*
"CC(C)CCC1=C(O)C(C(=O)C(C)C)=C(O)C(CCC(C)C)(CCC(C)C)C1=O [Hexahydro colupulone, hexahydrocolupulone]",Test Material at Half Maximal Secretion,adiponectin [4]; slope of Hofstee plots,3.2 µg/mL
C[C@]12C=CC(=O)C=C1CC[C@@H]1[C@@H]2[C@@H](O)C[C@@]2(C)[C@H]1CC[C@]2(O)C(=O)CO [prednisolone],arthritic index,"DBA/J mice; 10 mg/kg, days 30-42",Significant reductions
same,serum IL-6 levels,"DBA/J mice; mouse, in vivo",reached a statistical significance
"Cc1c(C)c2c(c(C)c1O)CCC(C)(COc1ccc(CC3SC(=O)NC3=O)cc1)O2 (centres unmarked) [Troglitazone, troglitazone]",Adiponectin/IL-6,"adiponectin [4]; 5.0 μg/ml, ratio of adiponectin index to IL-6 index (Table 21)",1.12
same,Concentration of maximum stimulation of adiponectin secretion,adiponectin [1],0.625 µg/mL
same,% Stimulation of adiponectin secretion (maximum),adiponectin [1]; [7],15%
"CC(=O)Oc1ccccc1C(=O)O [Aspirin, aspirin]",induction of adiponectin secretion,adiponectin [1],failed to induce adiponectin secretion
"CCc1ccc(CCOc2ccc(CC3SC(=O)NC3=O)cc2)nc1 (centres unmarked) [Pioglitazone, pioglitazone]",Concentration of maximum adiponectin secretion over four doses,"adiponectin [5]; 10 ng TNFα/ml, Example 17",1.25 µg/mL
same,"Adiponectin Index, Observed","adiponectin [5]; 1.0 μg/ml, indexed to TNFα control (Table 26)",1.80
same,Concentration of maximum stimulation of adiponectin secretion,adiponectin [1],1.25 µg/mL
same,% Stimulation of adiponectin secretion (maximum),adiponectin [1]; [7],12%
same,IL-6 Index,IL-6 [3],0.37*
"COc1cc(O)c(CC=C(C)C)c(O)c1C(=O)/C=C/c1ccc(O)cc1 [Xanthohumol, xanthohumol]",IL-6 secretion,IL-6 [6],Significant decreases in IL-6 secretion
same,remaining activity at 5 µg/mL,PKBγ,104%
same,remaining activity at 5 µg/mL,PKCβII,108%

# Reference: patent publication US7736677B2 (Metaproteomics, LLC, priority 2001, dated 2010)
